Values joined by “and” are separate entries in the source; they are usually repeats but may differ in a detail not shown here. Equal entries are not always repeated. “Also recorded” adds a separate entry of the source. Where two headings read alike, the source gives them in different places.
What was measured:
[1] = test system: cholinergic receptors located in the heart and in cortical tissues; conditions: cited from earlier work
[2] = in vivo; cited from earlier work
ethanol-induced narcosis = assay type: in vivo, male CD1 mice
From the text: It is known that administration of ethanol to mice induces a state of narcosis in the animals. […] It is also known that certain compounds can modify the narcotic effect of ethanol in this model.
Animals: Male CD1 mice (Charles-River Co., Portage, Mich.) weighing 25-30 g were used in the experiments. Upon arrival they were caged in groups of 14 and allowed to acclimatize to laboratory conditions for one week before the beginning of the studies. They were fed standard rodent diet with food and water ad libitum.
Duration of sleep time: Mice received intraperitoneal (i.p.) injections of ethanol and either saline or one of the drug treatments. Upon loss of the righting reflex, a timer was started to record the duration of the sleep time until the reflex was recovered. Two types of experiments were conducted to study the effect of drugs before (pre-treatment) or after (post-treatment) the injection of the narcotic dose of ethanol. In the pre-treatment experiments the drugs were injected i.p., 15 minutes before ethanol. In the post-treatment experiments the drugs were administered i.p., 1 minute after the animals lost the righting reflex, which was approximately 5 minutes after administration of ethanol.
Drugs: Ethanol was prepared as a 20% v/v (16% w/v) solution in saline. Based on previous studies, a dose of 87 mmol/kg (4 g/kg) was selected as the narcotic dose. RO 15-4513, the benzodiazepine receptor inverse agonist discussed in the Background section, was purchased from RBI (Natick, Mass.). It was dissolved in saline solution with Tween-80 and ultrasonically homogenized for 3 minutes. […] The compounds of Examples 2 and 4, both novel neuronal nicotinic receptor ligands according to the present invention, were also dissolved in saline to the desired concentrations.

effects of ethanol = conditions: cited from earlier work
[3] = test system: neuronal nicotinic cholinergic channels in PC12 cells; experiment: Cholinergic channel activator action in PC12 cells, whole-cell patch-clamp; assay type: cell-based, rat; conditions: PC12 cells; mean ± S.E.M.
Procedure: Electrophysiologic recordings were obtained from differentiated (neurite-bearing) cells after 4-7 days exposure to NGF. […] After 20 minutes, differentiating medium was added (DMEM containing 100 ng/ml nerve growth factor, 5% heat-inactivated fetal calf serum and 2.5% heat-inactivated horse serum) and the cells were refed with this medium every 3 days.
The intracellular (recording pipette) solution consisted of 140 mM KCl, 1.0 mM CaCl2, 2.0 mM MgCl2, 11 mM K-EGTA, and 10 mM K-HEPES buffer (7.3 pH, 315 mOsm). Osmolarities were adjusted using dextrose such that the extracellular solution was 10 mOsm hypertonic compared to the intracellular solution. Voltage-gated inward (sodium) and outward (potassium) currents were monitored throughout the experiment to determine establishment and maintenance of the whole-cell recording configuration.

[4] = test system: retention of the avoidance response; experiment: Inhibitory avoidance test; assay type: in vivo; conditions: i.p. 15 min before training, retention at 24 h, p<0.05
From the text: The inhibitory (or sometimes called passive) avoidance (IA) test is a well-accepted animal model for learning/memory and is widely used to assess the activity of novel cognition enhancers in enhancing cognitive function (Wanibuchi et al., Eur. J. Pharmacol., 1990, 187:479). According to this test, animals are placed in the illuminated (12×14×11 cm) portion of a two-chambered box, from which they enter through a guillotine door to the larger (24×13.5×12 cm) dark compartment of the box. Entry to the dark compartment is accompanied by a mild (0.35 mA), brief (2 seconds) footshock. Initial latencies to cross are recorded, with an imposed 60 second ceiling. Following a 24 hour retention interval, animals are returned to the illuminated chamber, and latency to return to the dark compartment is again recorded, with a ceiling of 180 seconds. No footshock is administered on the test day.
Twelve animals were used in each group.

[5] = test system: time spent in the open arms (anxiolytic activity); experiment: Mouse elevated plus-maze; assay type: in vivo, CD1 mice; conditions: i.p., p<0.05; for Elevated Plus-Maze (EPM) result: time in open arms
From the text: (§1) The mouse elevated plus-maze is a commonly-used conflict test that probes anxiolytic activity of test compounds (Lister, Psychopharmacology, 1987, 92 180). It is based on the fact that exposure of mice to an elevated open arm leads to an avoidance response considerably stronger than that evoked by exposure to an enclosed arm.
The apparatus required to perform this test is made of plywood and consists of two open arms (17×8 cm) and two enclosed arms (17×8×15 cm) extending from a central platform (8×8 cm). It is mounted on a plywood base rising 39 cm above the floor. Mice are released on the central platform and the time spent in the open and enclosed arms is recorded during a 5 minute test period.
The compound of Example 2 (0.0108-1.08 μmol/kg, i.p.) was administered to CD1 mice (n=12 per group) 15 minutes before the test.

spike wave discharges = experiment: Attenuation of petit mal absence-like spike wave discharges (EEG); assay type: in vivo, male Wistar rats; conditions: i.p.; 20 min waking immobility; p<0.05 where significant
Procedure: Animals: Male albino rats of the Wistar strain (CAMM Research) were maintained on a 12:12 hour light-dark cycle and individually housed throughout these experiments. They were fed standard rodent diet with food and water provided ad libitum.
EEG Recordings: To record spike wave discharges, rats were surgically implanted with permanently affixed EEG electrodes over the frontal codex using previously described techniques (Radek, Brain Res., 1993, in press). After at least a ten day recovery from this surgery, EEG recordings were made inside darkened sound attenuating chambers. Rats were allowed to move freely within the chambers and computerized activity monitors recorded animal motion during these studies. Only those rats that express spike wave discharges, as identified from preliminary recordings, were used to test the effects of nicotinic agents.
Drug studies: EEG recordings were obtained from each rat for a period of 20 minutes of total waking immobility immediately after administration of drug, or a drug-free control solution. Immobility was characterized as the absence of infrared beam interruptions from the activity monitor system. Spike wave activity was identified as regular 6-10 Hz complexes with amplitudes of 0.4 to 1.0 mV. The total spindling duration for 20 minutes of waking immobility was calculated by determining the length (in seconds) of each spike wave burst, and adding each of these times together to obtain a total spindle time for the recording session. Each rat was administered the control solution and one or two doses of the test compounds and each dosing was given at least 48 hours after the previous treatment.
The compound of Example 2 was dissolved in saline to the desired concentration.

1-4 Hz slow wave EEG = 1-4 Hz slow wave EEG amplitude; assay type: in vivo, male Wistar rats
[6] = test system: anxiety induced by (-)-nicotine withdrawal; experiment: Elevated plus-maze 48 hours after withdrawal of 14-day chronic (-)-nicotine; assay type: in vivo, rats
From the text: as §1, with “a” for “a commonly-used”, “92:180).” for “92 180).”, “arm. Compounds may be tested for their ability to modify the avoidance response of the animal to the open arm maze. […] The effect of such potential anti-anxiety drugs may be tested further in a withdrawal challenge test.” for “arm.”
Elevated Plus-Maze: The procedure originally described by Pellow et al., for rats was used, with minor modifications (Pellow et al., J. Neurosci. Meth., 14: 149, 1985). The apparatus consisted of two open arms (50×10 cm) and two enclosed arms (50×10×40 cm) extending from a central platform (10×10 cm). It was mounted on a base raising 50 cm above the floor. Light levels on the open and enclosed arms were similar. The animals were placed in the center of the maze and the time spent in the open arms and the total distance traveled by the rat were recorded automatically by a camera mounted above the apparatus, then analyzed by computer (Videomex™ software, Columbus Instruments, Columbus, Ohio). All animals used were naive to the apparatus. Animals were injected i.p. with saline or the different drug doses, and submitted to the test 30 minutes later. The test lasted 5 minutes, and the apparatus was thoroughly cleaned after removal of the animal.
The pumps were removed on day 14 and the animals were tested in the plus-maze 48 hours later, at the time when a state of withdrawal-induced anxiety was present in the rats. On the test day i.p. doses of either saline or the compound of Example 2 were administered to the animals 30 minutes before the test. Data (Table 13) represent the mean ±SEM time spent in the open arms of the plus-maze of 8-16 rats.

[7] = molecular target: neuronal nicotinic receptors; experiment: Displacement of [3H]-MCC or [3H]-cytisine from neuronal nicotinic receptors, whole rat brain membranes; assay type: binding; conditions: Table 1; oxalate salt; read-out: Nicotinic Receptor Ki
Procedure: Binding of [^3 H]-methylcarbamylcholine ([^3 H]-MCC) or [^3 H]-cytisine ([^3 H]-CYT) to nicotinic receptors was accomplished using crude synaptic membrane preparations from whole rat brain (Snyder and Enna, Brain Research, 1975, 100:81). Washed membranes were stored at -80° C. prior to use. Frozen aliquots were slowly thawed and resuspended in 20 volumes of buffer (containing: 120 mM NaCl, 5 mM KCl, 2 mM MgCl2, 2 mM CaCl2 and 50 mM Tris-Cl, pH 7.4 @4° C). After centrifuging at 20,000 X g for 15 minutes, the pellets were resuspended in 30 volumes of buffer. Homogenate (containing 125-150 μg protein) was added to triplicate tubes containing concentrations of test compound and [^3 H]-MCC (3 nM) in a final volume of 500 μL. Samples were incubated for 60 minutes at 4° C., then rapidly filtered through Whatman GF/B filters presoaked in 0.5% polyethylimine using 3×4 mL of ice-cold buffer. Alternately, homogenate and test compound were incubated for 75 min with [^3 H]-CYT (1.3 nM), then rapidly filtered, as described above. The filters are counted in 4 mL of Ecolume® (ICN). […] IC50 values were determined with the ALLFIT nonlinear least squares curve-fitting program and IC50 values were converted to Ki values using the Cheng and Prusoff correction (Ki =IC50 /(1+[ligand]/Kd of ligand)). Alternately, data were expressed as a percentage of the total specific binding.

[8] = post-treatment, i.p., p<0.05, one-tailed t test

With CCN1C(=O)CC2(CCN(C)CC2)C1=O [RS-86] as the molecule, how does the “agonism at cardiac receptors” value ([1]; cardiac) read?
Its value is “full agonist”.

And the “agonism at cortical receptors” value ([1]; cortical)?
Its value is “partial agonist”.

For C[N+](C)(C)CCOC(N)=O [carbachol], which CNS penetration [2] is on record?
The CNS penetration was “poor CNS penetration”.

Which results are given for CCOC(=O)c1ncn2c1CN(C)C(=O)c1cc(N=[N+]=[N-])ccc1-2 [RO 15-4513]?
Sleeping time (ethanol-induced narcosis; post-treatment, 1 μmol/kg i.p.): 84 ± 14 % of controls; Sleeping time (ethanol-induced narcosis; post-treatment, 3 μmol/kg i.p., statistically significant): 165 ± 22 % of controls; Sleeping time (ethanol-induced narcosis; post-treatment, 10 μmol/kg i.p.): 118 ± 13 % of controls; Sleeping time (ethanol-induced narcosis; post-treatment, 30 μmol/kg i.p.): 73 ± 11 % of controls; effect of post-treatment on ethanol-induced narcosis (ethanol-induced narcosis; [8]): significantly prolonged the narcotic effect of ethanol; also recorded: adversely potentiated the narcotic effect; Sleeping time (ethanol-induced narcosis; pre-treatment, 1 μmol/kg i.p.): 101 ± 9 % of controls; Sleeping time (ethanol-induced narcosis; pre-treatment, 3 μmol/kg i.p.): 107 ± 19 % of controls; Sleeping time (ethanol-induced narcosis; pre-treatment, 10 μmol/kg i.p.): 79 ± 6 % of controls; Sleeping time (ethanol-induced narcosis; pre-treatment, 30 μmol/kg i.p., statistically significant): 57 ± 14 % of controls; effect of pre-treatment on ethanol sleeping time (ethanol-induced narcosis; pre-treatment, i.p., p<0.05, one-tailed t test): significantly reduced the sleeping time of ethanol in mice; antagonism of the effects of ethanol (effects of ethanol; rats): selectively antagonize the effects of ethanol in rats

Which EC50 [3] does the source give for CN1CCCC1c1cccnc1 (single isomer, unassigned; (-)) [(-)-Nicotine] here?
Its EC50 is 52 ± 4 µM.

And the “Inhibitory Avoidance (IA) result” value [4]?
The value was “dose-dependent facilitation of retention of the avoidance response”.

What about the “Inhibitory Avoidance (IA) result” value ([4]; listed as (-)-nicotine) of the same molecule?
The value was “significant”.

And the “Elevated Plus-Maze (EPM) doses with significant effect” value [5]?
The value was 0.62 to 1.9 µmol/kg.

And the “Elevated Plus-Maze (EPM) result” value [5]?
Its value is “significant increase in the time spent by the mice in the open arms”.

What about the “Elevated Plus-Maze (EPM) result” value ([5]; listed as (-)-nicotine) of the same molecule?
The value was “significant”.

What about the “effect of pre-treatment on ethanol sleeping time” value (ethanol-induced narcosis; mouse, in vivo) of the same molecule?
Its value is “significantly reduced the sleeping time of ethanol in mice”.

And the Sleeping time (ethanol-induced narcosis; mouse, in vivo, ip)?
The Sleeping time was 121 ± 18 % of controls and 149 ± 28 % of controls and 164 ± 32 % of controls and 232 ± 29 % of controls.

What about the “effect of post-treatment on ethanol-induced narcosis” value (ethanol-induced narcosis; mouse, in vivo, ip) of the same molecule?
Its value is “significantly prolonged the narcotic effect of ethanol; also recorded: adversely potentiated the narcotic effect”.

And the “effect on incidence of spike wave discharges” value (spike wave discharges)?
Its value is “significantly lowered the incidence of spike wave discharges”.

And the “1-4 Hz amplitude” value (1-4 Hz slow wave EEG; 1.9 μmol/kg i.p.)?
Its value is 13.2 ± 2.0 μVolts.

And the “effect on low frequency (1-4 Hz) EEG slow-wave patterns” value (1-4 Hz slow wave EEG; i.p.)?
The value was “significant (p<0.05, 2-way ANOVA, Fisher post hoc analysis) attenuation”.

And the “effect on time spent in the open arms” value ([6]; 48 h after withdrawal of chronic (-)-nicotine)?
The value was “significant reduction in the time spent in the open arms”.

And the “TIME OPEN ARMS” value ([6]; 14 days chronic 10 mg/kg/day then withdrawal, saline challenge, *p < 0.05 against chronic saline, mean ± SEM)?
Its value is 35.1 ± 6.0 s.

What about the “effect on motor incoordination due to ethanol” value (effects of ethanol; administered directly into the brain, ethanol i.p.) of the same molecule?
The value was “significantly attenuate the motor incoordination due to the effects of ethanol”.

For CCc1cc([C@@H]2CCCN2C)on1.O=C(O)C(=O)O [Example 4, 3-Ethyl-5-(1-methyl-2(S)-pyrrolidinyl)-isoxazole oxalate salt], which Ki [7] is on record?
Its Ki is 0.009 µM.

And the Sleeping time (ethanol-induced narcosis; post-treatment, 0.062 μmol/kg i.p.)?
The Sleeping time was 73 ± 12 % of controls.

And the Sleeping time (ethanol-induced narcosis; post-treatment, 0.19 μmol/kg i.p.)?
Its Sleeping time is 61 ± 7 % of controls.

What about the Sleeping time (ethanol-induced narcosis; post-treatment, 0.62 μmol/kg i.p.) of the same molecule?
The Sleeping time was 59 ± 8 % of controls.

What about the “effect of post-treatment on ethanol-induced narcosis” value (ethanol-induced narcosis; [8]) of the same molecule?
The value was “significantly reduced”.
